According to EP4603105A1, “PHARMACEUTICAL COMPOSITION CONTAINING CYCLIC COMPOUND HAVING SELECTIVE KRAS INHIBITORY EFFECT AGAINST HRAS AND NRAS” (CHUGAI SEIYAKU KABUSHIKI KAISHA, priority 2022, dated 2024):
Where a SMILES comes first, the peptide text is derived from it. Bridges are numbered along the chain shown (N, C = ends). [ ]: non-standard residue; d: D form. The star is where a group is joined. hPhe(3-Cl-4-CF3) = N[C@@H](CCc1ccc(C(F)(F)F)c(Cl)c1)C(=O)O; NPrPhe(4-CF3) = CCCN[C@@H](Cc1ccc(C(F)(F)F)cc1)C(=O)O; NMeGly(cPent) = CN[C@H](C(=O)O)C1CCCC1; Pro(4,4-F2) = O=C(O)[C@@H]1CC(F)(F)CN1; NMeD = CN[C@@H](CC(=O)O)C(=O)O; NMeL = CN[C@@H](CC(C)C)C(=O)O; Azetidin(1-yl) = C1CN(*)C1; Ac5c = NC1(C(=O)O)CCCC1; Aze = O=C(O)[C@@H]1CCN1; Ac4c = NC1(C(=O)O)CCC1; Sar = CNCC(=O)O

Tests used:
[1] = target: GDP-bound NRAS wild-type protein (Homo sapiens, UniProt P01111); assay: Binding to NRAS by surface plasmon resonance (SPR), KD and KD ratio to KRAS
Outline: (§1)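 GDP-bound biotin-Avi RAS captured at ~100–300 RU, 30°C, pH 7.4 HBS containing 10 µM GDP, 10 mM MgCl2, 1 mM DTT, 0.01% Tween 20 and 4% DMSO. KD by 1:1 fitting.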

HRAS wild-type protein = HRAS wild-type protein (Homo sapiens, UniProt P01112); assay: Binding to HRAS by surface plasmon resonance (SPR), KD and KD ratio to KRAS
Outline: as §1

[2] = system: human lung cancer strain NCI-H441; assay type: cell-based
Outline: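 Readout: […] after the ATP-based reagent. Compound: serial dilutions in dimethyl sulfoxide.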

[3] = ratio of KD value for GDP-bound NRAS wild-type protein to KD value for KRAS (SPR)
[4] = ratio of KD value for HRAS wild-type protein to KD value for KRAS (SPR)
[5] = ratio of the KD value with respect to GDP-bound NRAS wild-type protein to the KD value with respect to KRAS
[6] = ratio of the KD value with respect to HRAS wild-type protein to the KD value with respect to KRAS
[7] = ratio of KD for GDP-bound NRAS wild-type protein to KD for KRAS
[8] = ratio of KD for HRAS wild-type protein to KD for KRAS

HRAS wild-type protein, sequence (P01112 whole entry): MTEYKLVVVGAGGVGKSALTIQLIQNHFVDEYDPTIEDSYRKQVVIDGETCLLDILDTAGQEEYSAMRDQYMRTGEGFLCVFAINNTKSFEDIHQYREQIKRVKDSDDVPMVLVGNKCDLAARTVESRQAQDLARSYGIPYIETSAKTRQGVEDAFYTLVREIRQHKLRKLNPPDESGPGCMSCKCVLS
GDP-bound NRAS wild-type protein, sequence (P01111 whole entry): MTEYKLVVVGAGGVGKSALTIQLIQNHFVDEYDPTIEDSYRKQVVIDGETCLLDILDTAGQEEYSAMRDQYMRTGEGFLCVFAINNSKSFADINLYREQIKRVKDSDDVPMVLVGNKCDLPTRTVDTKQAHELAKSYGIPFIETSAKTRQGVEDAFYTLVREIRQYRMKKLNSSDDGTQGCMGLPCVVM

## CCO[C@@H]1C[C@H]2C(=O)NC3(CCC3)C(=O)N(C)[C@@H](C(CC)CC)C(=O)N(C)[C@H](C(=O)N(C)C)CC(=O)N(C)[C@@H](CC(C)C)C(=O)N[C@@H]([C@@H](C)CC)C(=O)N(C)CC(=O)N(C)[C@H]3C/C=C\CCN(C3=O)[C@@H](Cc3ccc(F)cc3C)C(=O)N(C)CC(=O)N[C@@H](CCc3cc(F)c(C(F)(F)F)c(F)c3)C(=O)N2C1 [PP1518]
[1]; [3]
  NRAS /KRAS: A (a compound having 10 or more and less than 20 is denoted as A)
HRAS wild-type protein; [4]
  HRAS /KRAS: B (a compound having 3 or more and less than 10 is denoted as B)
[2]
  IC50: 49.4 nM

## CCO[C@@H]1C[C@H]2C(=O)NC3(CC(C)(C)C3)C(=O)N(C)[C@@H](C(CC)CC)C(=O)N(C)[C@H](C(=O)N(C)C)CC(=O)N(C)[C@@H](CC3CCC3)C(=O)N[C@@H]([C@@H](C)CC)C(=O)N(C)CC(=O)N(C)[C@H]3C/C=C\CCN(C3=O)[C@@H](Cc3ccc(C(F)(F)F)cc3)C(=O)N(C)CC(=O)N[C@@H](CCc3ccc(C(F)(F)F)c(OC)c3)C(=O)N2C1 [PP2164]
[1]; [5]
  NRAS /KRAS: A (a compound having 10 or more and less than 20 is denoted as A)
HRAS wild-type protein; [6]
  HRAS /KRAS: A (a compound having 10 or more and less than 20 is denoted as A)
[2]
  IC50: 14.2 nM

## CC[C@H](C)[C@@H]1NC(=O)[C@H](COC)N(C)C(=O)C[C@@H](C(=O)N2CCOCC2)N(C)C(=O)[C@H](C2CCCC2)N(C)C(=O)C2(CCC2)NC(=O)[C@@H]2CCN2C(=O)[C@H](CCc2cc(F)c(C(F)(F)F)c(F)c2)NC(=O)CN(C)C(=O)[C@H](Cc2ccc(C(F)(F)F)cc2)N2CCCCC[C@@H](C2=O)N(C)C(=O)CN(C)C1=O [PP0840]
[1]; [7]
  NRAS /KRAS: B (a compound having 3 or more and less than 10 is denoted as B)
HRAS wild-type protein; [8]
  HRAS /KRAS: B (a compound having 3 or more and less than 10 is denoted as B)
[2]
  IC50: 572 nM

## CCC[C@H]1C(=O)N[C@@H](C2CCCC2)C(=O)N(C)CC(=O)N(C)[C@H]2C/C=C\CCN(C2=O)[C@@H](Cc2ccc(C)cc2)C(=O)N(C)CC(=O)N[C@@H](CCc2ccc(C(F)(F)F)c(Cl)c2)C(=O)N2C[C@H](OCC)C[C@H]2C(=O)NC2(CC(C)(C)C2)C(=O)N(C)[C@@H](CC(C)(C)C)C(=O)N(C)[C@H](C(=O)N(C)C)CC(=O)N1C [PP2196]
[1]; [5]
  NRAS /KRAS: A (a compound having 10 or more and less than 20 is denoted as A)
HRAS wild-type protein; [6]
  HRAS /KRAS: B (a compound having 3 or more and less than 10 is denoted as B)
[2]
  IC50: 6.6 nM

## CCO[C@@H]1C[C@H]2C(=O)NC3(CC(C)(C)C3)C(=O)N(C)[C@@H](C3CCCC3)C(=O)N(C)[C@H](C(=O)N(C)C)CC(=O)N(C)[C@@H](C3CCC3)C(=O)N[C@@H]([C@@H](C)CC)C(=O)N(C)CC(=O)N(C)[C@H]3C/C=C\CCN(C3=O)[C@@H](Cc3ccc(C(F)(F)F)cc3)C(=O)N(C)CC(=O)N[C@@H](CCc3ccc(C(F)(F)F)c(OC)c3)C(=O)N2C1 [PP1987]
[1]; [5]
  NRAS /KRAS: A (a compound having 10 or more and less than 20 is denoted as A)
HRAS wild-type protein; [6]
  HRAS /KRAS: A (a compound having 10 or more and less than 20 is denoted as A)
[2]
  IC50: 6.6 nM

## CCCN1C(=O)CN(C)C(=O)CN(C)C(=O)[C@H]([C@@H](C)CC)NC(=O)[C@H](CC(C)C)N(C)C(=O)C[C@@H](C(=O)N2CCC2)N(C)C(=O)[C@H](C2CCCC2)N(C)C(=O)C2(CCCC2)NC(=O)[C@@H]2CCCN2C(=O)[C@H](CCc2ccc(C(F)(F)F)c(Cl)c2)NC(=O)CN(C)C(=O)[C@@H]1Cc1ccc(C(F)(F)F)cc1 [PP0172] ([NMeL]I[Sar][Sar][NPrPhe(4-CF3)][Sar][hPhe(3-Cl-4-CF3)]P[Ac5c][NMeGly(cPent)][NMeD]-{Azetidin(1-yl)}; lactam N-11)
[1]; [7]
  NRAS /KRAS: B (a compound having 3 or more and less than 10 is denoted as B)
HRAS wild-type protein; [8]
  HRAS /KRAS: C (A compound having a KD ratio of 0.1 or more and less than 3 is denoted as C)
[2]
  IC50: 3.8 nM

## CCO[C@@H]1C[C@H]2C(=O)NC3(CCC3)C(=O)N(C)[C@@H](C3CCCC3)C(=O)N(CC)[C@H](C(=O)N3CCOCC3)CC(=O)N(C)[C@@H](Cc3ccccc3)C(=O)N[C@@H]([C@@H](C)CC)C(=O)N(C)CC(=O)N(C)[C@H]3CCCCCN(C3=O)[C@@H](Cc3ccc(C(F)(F)F)cc3)C(=O)N(C)CC(=O)N[C@@H](CCc3cc(F)c(C(F)(F)F)c(F)c3)C(=O)N2C1 [PP0950]
[1]; [7]
  NRAS /KRAS: A (a compound having 10 or more and less than 20 is denoted as A)
HRAS wild-type protein; [8]
  HRAS /KRAS: B (a compound having 3 or more and less than 10 is denoted as B)
[2]
  IC50: 958 nM

## CCCN1C(=O)[C@@H]2CCN2C(=O)CN(C)C(=O)[C@H]([C@@H](C)CC)NC(=O)[C@H](CC(C)C)N(C)C(=O)C[C@@H](C(=O)N(C)C)N(C)C(=O)[C@H](C2CCCC2)N(C)C(=O)C2(CCC2)NC(=O)[C@@H]2CC(F)(F)CN2C(=O)[C@H](CCc2ccc(C(F)(F)F)c(Cl)c2)NC(=O)CN(C)C(=O)[C@@H]1Cc1ccc(C(F)(F)F)cc1 [PP0443] ([NMeL]I[Sar][Aze][NPrPhe(4-CF3)][Sar][hPhe(3-Cl-4-CF3)][Pro(4,4-F2)][Ac4c][NMeGly(cPent)][NMeD]-NMe2; lactam N-11)
[1]; [5]
  NRAS /KRAS: C (A compound having a KD ratio of 0.1 or more and less than 3 is denoted as C)
HRAS wild-type protein; [6]
  HRAS /KRAS: C (A compound having a KD ratio of 0.1 or more and less than 3 is denoted as C)
[2]
  IC50: 0.9 nM

## CCCCO[C@@H]1C[C@H]2C(=O)NC3(CCC3)C(=O)N(C)[C@@H](C3CCCC3)C(=O)N(C)[C@H](C(=O)N3CCOCC3)CC(=O)N(C)[C@@H](CC(C)C)C(=O)N[C@@H]([C@@H](C)CC)C(=O)N(C)CC(=O)N(C)[C@H]3CCCCCN(C3=O)[C@@H](Cc3ccc(C(F)(F)F)cc3)C(=O)N(C)CC(=O)N[C@@H](CCc3cc(F)c(C(F)(F)F)c(F)c3)C(=O)N2C1 [PP1004]
[1]; [7]
  NRAS /KRAS: B (a compound having 3 or more and less than 10 is denoted as B)
HRAS wild-type protein; [8]
  HRAS /KRAS: B (a compound having 3 or more and less than 10 is denoted as B)
[2]
  IC50: 255 nM

## C#CC[C@H]1C(=O)N[C@@H]([C@@H](C)CC)C(=O)N(C)CC(=O)N(C)[C@H]2CCCCN(C2=O)[C@@H](Cc2ccc(C(F)(F)F)cc2)C(=O)N(C)CC(=O)N[C@@H](CCc2cc(F)c(C(F)(F)F)c(F)c2)C(=O)N2C[C@H](OCC)C[C@H]2C(=O)NC2(CCC2)C(=O)N(C)[C@@H](C2CCCC2)C(=O)N(C)[C@H](C(=O)N2CCOCC2)CC(=O)N1C [PP0711]
[1]; [5]
  NRAS /KRAS: C (A compound having a KD ratio of 0.1 or more and less than 3 is denoted as C)
HRAS wild-type protein; [6]
  HRAS /KRAS: B (a compound having 3 or more and less than 10 is denoted as B)
[2]
  IC50: 6.5 nM

## CC[C@H](C)[C@@H]1NC(=O)[C@H](CC)N(C)C(=O)C[C@@H](C(=O)N(C)C)N(C)C(=O)[C@H](C2CCCC2)N(C)C(=O)C2(CCCC2)N(C)C(=O)[C@@H]2CCCN2C(=O)[C@H](CCc2cc(F)c(C(F)(F)F)c(F)c2)NC(=O)CN(C)C(=O)[C@H](Cc2ccc(C)cc2)N2CC/C=C\C[C@@H](C2=O)N(C)C(=O)[C@@H]2CCCN2C1=O [PP1811]
[1]; [3]
  NRAS /KRAS: A (a compound having 10 or more and less than 20 is denoted as A)
HRAS wild-type protein; [4]
  HRAS /KRAS: B (a compound having 3 or more and less than 10 is denoted as B)
[2]
  IC50: 14.3 nM

## CCCOC[C@H]1C(=O)N[C@@H]([C@@H](C)CC)C(=O)N(C)CC(=O)N(C)[C@H]2C/C=C\CCN(C2=O)[C@@H](Cc2ccc(C(F)(F)F)cc2)C(=O)N(C)CC(=O)N[C@@H](CCc2ccc(C(F)(F)F)c(OC)c2)C(=O)N2C[C@H](OCC)C[C@H]2C(=O)NC2(CCC2)C(=O)N(C)[C@@H](C2CCCC2)C(=O)N(C)[C@H](C(=O)N(C)CC)CC(=O)N1C [PP2016]
[1]; [5]
  NRAS /KRAS: A (a compound having 10 or more and less than 20 is denoted as A)
HRAS wild-type protein; [6]
  HRAS /KRAS: A (a compound having 10 or more and less than 20 is denoted as A)
[2]
  IC50: 8.2 nM

## CC[C@H](C)[C@@H]1NC(=O)[C@H](CC)N(C)C(=O)C[C@@H](C(=O)N(C)CC)N(C)C(=O)[C@H](C2CCCC2)N(C)C(=O)C2(CC(C)(C)C2)NC(=O)[C@@H]2C[C@H](C)CN2C(=O)[C@H](CCc2ccc(C(F)(F)F)c(Cl)c2)NC(=O)CN(C)C(=O)[C@H](Cc2ccc(C)cc2)N2CC/C=C\C[C@@H](C2=O)N(C)C(=O)CN(C)C1=O [PP1874]
[1]; [3]
  NRAS /KRAS: A (a compound having 10 or more and less than 20 is denoted as A)
HRAS wild-type protein; [4]
  HRAS /KRAS: A (a compound having 10 or more and less than 20 is denoted as A)
[2]
  IC50: 9.9 nM

## CCO[C@@H]1C[C@H]2C(=O)NC3(CC(C)(C)C3)C(=O)N(C)[C@@H](C(CC)CC)C(=O)N(C)[C@H](C(=O)N(C)C)CC(=O)N(C)[C@@H](CC(C)C)C(=O)N[C@@H]([C@@H](C)CC)C(=O)N(C)CC(=O)N(C)[C@H]3C/C=C\CCN(C3=O)[C@@H](Cc3ccc(C)cc3)C(=O)N(C)CC(=O)N[C@@H](CCc3ccc(C(F)(F)F)c(OC)c3)C(=O)N2C1 [PP2168]
[1]; [5]
  NRAS /KRAS: A (a compound having 10 or more and less than 20 is denoted as A)
HRAS wild-type protein; [6]
  HRAS /KRAS: A (a compound having 10 or more and less than 20 is denoted as A)
[2]
  IC50: 16.9 nM
